In PubChem BioAssay (NCI):
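Each compound was tested at five concentrations against cells in 96-well plates for 48 hours. GI50 marks 50% less growth. TGI: concentration producing complete growth inhibition.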

Tests used:
Test in all cases: growth of human tumour cells (NCI), 48 h
[1] = tested on: OVCAR-5 ovarian
[2] = tested on: NCI-H522 lung
[3] = tested on: COLO 205 colon
[4] = tested on: DU-145 prostate
[5] = tested on: SK-MEL-28 melanoma
[6] = tested on: BT-549 breast
[7] = tested on: NCI-H460 lung
[8] = tested on: HOP-62 NSCLC
[9] = tested on: TK-10 renal
[10] = tested on: A498 renal
[11] = tested on: A549 NSCLC
[12] = tested on: RPMI-8226 leukemia
[13] = tested on: MOLT-4 leukemia
[14] = tested on: SF-295 CNS
[15] = tested on: MDA-MB-435
[16] = tested on: SF-268 CNS
[17] = tested on: IGROV1 ovarian
[18] = tested on: MCF7 breast
[19] = tested on: 786-0 renal
[20] = tested on: M14 melanoma
[21] = tested on: UACC-62 melanoma
[22] = tested on: NCI/ADR-RES ovarian
[23] = tested on: UACC-257 melanoma
[24] = tested on: HS 578T breast
[25] = tested on: MALME-3M melanoma
[26] = tested on: NCI-H226 lung
[27] = tested on: HCC-2998 colon
[28] = tested on: MDA-MB-231 breast
[29] = tested on: SNB-19 CNS
[30] = tested on: NCI-H23 lung
[31] = tested on: SN12C renal
[32] = tested on: SF-539 CNS
[33] = tested on: LOX IMVI melanoma
[34] = tested on: HCT-116 colon
[35] = tested on: SNB-75 CNS
[36] = tested on: EKVX NSCLC
[37] = tested on: T-47D breast
[38] = tested on: ACHN renal
[39] = tested on: OVCAR-3 ovarian
[40] = tested on: UO-31 renal
[41] = tested on: SK-MEL-5 melanoma
[42] = tested on: HT29 colon
[43] = tested on: KM12 colon
[44] = tested on: SK-MEL-2 melanoma
[45] = tested on: SK-OV-3 ovarian
[46] = tested on: U251 CNS
[47] = tested on: CAKI-1 renal
[48] = tested on: OVCAR-8 ovarian
[49] = tested on: RXF 393 renal
[50] = tested on: HCT-15 colon
[51] = tested on: SW-620 colon
[52] = tested on: OVCAR-4 ovarian
[53] = tested on: K-562 leukemia
[54] = tested on: HL-60(TB) leukemia
[55] = tested on: CCRF-CEM leukemia
[56] = tested on: PC-3 prostate
[57] = tested on: HOP-92 NSCLC

COc1ccc(-c2nc(C(=O)c3ccccc3)n(CC(=O)c3ccc(Cl)cc3)c2-c2ccc(OC)cc2)cc1
GI50 [1]: > 100 µM
TGI [1]: > 100 µM
GI50 [2]: > 100 µM
TGI [2]: > 100 µM
GI50 [3]: > 100 µM
TGI [3]: > 100 µM
GI50 [4]: > 100 µM
TGI [4]: > 100 µM
GI50 [5]: > 100 µM
TGI [5]: > 100 µM
GI50 [6]: 85.6 µM
TGI [6]: > 100 µM
GI50 [7]: > 100 µM
TGI [7]: > 100 µM
GI50 [8]: > 100 µM
TGI [8]: > 100 µM
GI50 [9]: > 100 µM
TGI [9]: > 100 µM
GI50 [10]: > 100 µM
TGI [10]: > 100 µM
GI50 [11]: > 100 µM
TGI [11]: > 100 µM
GI50 [12]: > 100 µM
TGI [12]: > 100 µM
GI50 [13]: > 100 µM
TGI [13]: > 100 µM
GI50 [14]: > 100 µM
TGI [14]: > 100 µM
GI50 [15]: > 100 µM
TGI [15]: > 100 µM
GI50 [16]: > 100 µM
TGI [16]: > 100 µM
GI50 [17]: > 100 µM
TGI [17]: > 100 µM
GI50 [18]: > 100 µM
TGI [18]: > 100 µM
GI50 [19]: > 100 µM
TGI [19]: > 100 µM
GI50 [20]: > 100 µM
TGI [20]: > 100 µM
GI50 [21]: > 100 µM
TGI [21]: > 100 µM
GI50 [22]: > 100 µM
TGI [22]: > 100 µM
GI50 [23]: > 100 µM
TGI [23]: > 100 µM
GI50 [24]: > 100 µM
TGI [24]: > 100 µM
GI50 [25]: > 100 µM
TGI [25]: > 100 µM
GI50 [26]: > 100 µM
TGI [26]: > 100 µM
GI50 [27]: > 100 µM
TGI [27]: > 100 µM
GI50 [28]: > 100 µM
TGI [28]: > 100 µM
GI50 [29]: > 100 µM
TGI [29]: > 100 µM
GI50 [30]: > 100 µM
TGI [30]: > 100 µM
GI50 [31]: > 100 µM
TGI [31]: > 100 µM
GI50 [32]: > 100 µM
TGI [32]: > 100 µM
GI50 [33]: > 100 µM
TGI [33]: > 100 µM
GI50 [34]: > 100 µM
TGI [34]: > 100 µM
GI50 [35]: > 100 µM
TGI [35]: > 100 µM
GI50 [36]: > 100 µM
TGI [36]: > 100 µM
GI50 [37]: > 100 µM
TGI [37]: > 100 µM
GI50 [38]: > 100 µM
TGI [38]: > 100 µM
GI50 [39]: > 100 µM
TGI [39]: > 100 µM
GI50 [40]: > 100 µM
TGI [40]: > 100 µM
GI50 [41]: > 100 µM
TGI [41]: > 100 µM
GI50 [42]: > 100 µM
TGI [42]: > 100 µM
GI50 [43]: > 100 µM
TGI [43]: > 100 µM
GI50 [44]: > 100 µM
TGI [44]: > 100 µM
GI50 [45]: > 100 µM
TGI [45]: > 100 µM
GI50 [46]: > 100 µM
TGI [46]: > 100 µM
GI50 [47]: > 100 µM
TGI [47]: > 100 µM
GI50 [48]: > 100 µM
TGI [48]: > 100 µM
GI50 [49]: > 100 µM
TGI [49]: > 100 µM
GI50 [50]: > 100 µM
TGI [50]: > 100 µM
GI50 [51]: > 100 µM
TGI [51]: > 100 µM
GI50 [52]: > 100 µM
TGI [52]: > 100 µM
GI50 [53]: > 100 µM
TGI [53]: > 100 µM
GI50 [54]: 46 µM
TGI [54]: > 100 µM
GI50 [55]: > 100 µM
TGI [55]: > 100 µM
GI50 [56]: > 100 µM
TGI [56]: > 100 µM
GI50 [57]: > 100 µM
TGI [57]: > 100 µM

CCCN1CCC=C(c2ccc(Nc3nc(Nc4ccccc4C(N)=O)c4cc[nH]c4n3)c(C)c2)C1
GI50 [1]: 4.01 µM
TGI [1]: > 25 µM
GI50 [2]: 8.66 µM
TGI [2]: > 25 µM
GI50 [3]: 2.37 µM
TGI [3]: 8.68 µM
GI50 [4]: 3.76 µM
TGI [4]: > 25 µM
GI50 [5]: > 23.8 µM
TGI [5]: > 25 µM
GI50 [6]: 17.2 µM
TGI [6]: > 25 µM
GI50 [7]: 2.46 µM
TGI [7]: > 25 µM
GI50 [8]: > 20 µM
TGI [8]: > 25 µM
GI50 [9]: 4.61 µM
TGI [9]: 24.4 µM
GI50 [10]: 11.1 µM
TGI [10]: > 25 µM
GI50 [11]: 1.89 µM
TGI [11]: > 25 µM
GI50 [12]: 5.53 µM
TGI [12]: > 21.7 µM
GI50 [13]: 7.79 µM
TGI [13]: > 21 µM
GI50 [14]: > 25 µM
TGI [14]: > 25 µM
GI50 [15]: 3.15 µM
TGI [15]: > 25 µM
GI50 [16]: > 25 µM
TGI [16]: > 25 µM
GI50 [17]: 8.29 µM
TGI [17]: > 25 µM
GI50 [18]: 0.289 µM
TGI [18]: > 25 µM
GI50 [19]: 17.3 µM
TGI [19]: > 25 µM
GI50 [20]: 4.77 µM
TGI [20]: > 25 µM
GI50 [21]: 14.4 µM
TGI [21]: > 25 µM
GI50 [22]: > 22.4 µM
TGI [22]: > 25 µM
GI50 [23]: 2.65 µM
TGI [23]: > 25 µM
GI50 [24]: > 17.8 µM
TGI [24]: > 25 µM
GI50 [25]: 5.35 µM
TGI [25]: > 25 µM
GI50 [26]: > 17.7 µM
TGI [26]: > 25 µM
GI50 [27]: 5.7 µM
TGI [27]: > 25 µM
GI50 [28]: > 16.6 µM
TGI [28]: > 25 µM
GI50 [29]: > 25 µM
TGI [29]: > 25 µM
GI50 [30]: 8.16 µM
TGI [30]: > 25 µM
GI50 [31]: > 21.1 µM
TGI [31]: > 25 µM
GI50 [32]: 17.9 µM
TGI [32]: > 25 µM
GI50 [33]: 1.77 µM
TGI [33]: > 25 µM
GI50 [34]: 2.56 µM
TGI [34]: > 25 µM
GI50 [35]: > 25 µM
TGI [35]: > 25 µM
GI50 [36]: > 17.8 µM
TGI [36]: > 25 µM
GI50 [37]: > 18.3 µM
TGI [37]: > 25 µM
GI50 [38]: 15.4 µM
TGI [38]: > 25 µM
GI50 [39]: 17.9 µM
TGI [39]: > 25 µM
GI50 [40]: 2.98 µM
TGI [40]: > 25 µM
GI50 [41]: 13.2 µM
TGI [41]: > 25 µM
GI50 [42]: 0.407 µM
TGI [42]: > 13.2 µM
GI50 [43]: 9.48 µM
TGI [43]: > 25 µM
GI50 [44]: 2.51 µM
TGI [44]: 15.4 µM
GI50 [45]: 9.68 µM
TGI [45]: > 25 µM
GI50 [46]: 9.78 µM
TGI [46]: > 25 µM
GI50 [47]: 9.49 µM
TGI [47]: > 25 µM
GI50 [48]: 10.1 µM
TGI [48]: > 25 µM
GI50 [49]: 11 µM
TGI [49]: > 25 µM
GI50 [50]: 8.98 µM
TGI [50]: > 25 µM
GI50 [51]: 1.48 µM
TGI [51]: > 25 µM
GI50 [52]: > 14.6 µM
TGI [52]: > 25 µM
GI50 [53]: 4.42 µM
TGI [53]: > 22.8 µM
GI50 [54]: 0.387 µM
TGI [54]: 6.84 µM
GI50 [55]: 3.32 µM
TGI [55]: > 25 µM
GI50 [56]: > 23.4 µM
TGI [56]: > 25 µM
GI50 [57]: 0.158 µM
TGI [57]: 2.04 µM
